Test results taken from patent US20260109732A1, “LIPID AMINES” (ModernaTX, Inc., priority 2021, published 2026).
Counter-ions that a name gives are not always drawn.

Columns and labels:
[1] = Encapsulation of mRNA nanoparticles with lipid amines using Ribogreen assay; format: physicochemical; conditions: CFTR mRNA nanoparticle with lipid amine
Description: (§1) Lipids are dissolved in ethanol at a concentration of 24 mg/mL and molar ratios of 49.0:11.2:39.3:0.5 (IL1:DSPC:cholesterol:PEG-DMG-2K) and mixed with the acidification buffer (45 mM acetate buffer at pH 4). The lipid solution and acidification buffer are mixed using a multi-inlet vortex mixer at a 3:7 volumetric ratio of lipid:buffer for mixer 1 and mixer 2 and a 1:3 volumetric ratio of lipid:buffer (25% ethanol) for mixer 3. After a 5 second residence time, the resulting nanoparticles are mixed with 55 mM sodium acetate at pH 5.6 at a volumetric ratio of 5:7 of nanoparticle:buffer. See Table 2a for mixing parameters. The resulting dilute nanoparticles are then buffer exchanged and concentrated using tangential flow filtration (TFF) into a final buffer containing 5 mM sodium acetate pH 5.0. Then a 70% sucrose solution in 5 mM acetate buffer at pH 5 is subsequently added.
(§2) The resulting nanoparticles at a lipid concentration of 7.33 mg/mL in 5 mM acetate (pH 5) and 75 g/L sucrose are mixed with mRNA (luciferease or CFTR) at a concentration of 0.625 mg/mL in 42.5 mM sodium acetate pH 5.0, with N:P of 4.93. The nanoparticle solution and nanoparticles are mixed using a multi-inlet vortex mixer at a 3:2 volumetric ratio of nanoparticle:mRNA. Once loaded with mRNA, these intermediate nanoparticles undergo a 300 second residence time prior addition of neutralization buffer containing 120 mM TRIS pH 8.12 at a volumetric ratio of 5:1 of nanoparticle:buffer.
(§3) For HeLa studies evaluating luciferase protein expression, PEG-DMG-2K dissolved in a 20 mM TRIS buffer (pH 7.5) is added to the neutralized intermediate nanoparticle solution at a ratio of 1:6, bringing the solution to the final molar ratios of IL1:DSPC:cholesterol:PEG-DMG-2K of 48.5:11.1:38.9:1.5%. This nanoparticle formulation is then modified with lipid amines. In a typical example, nanoparticle formulation at a concentration of 0.18 mg/mL mRNA and a 0.56 mL volume is modified with lipid amine SA50 (467.2 nmol) prepared in buffer containing 20 mM TRIS, 14.3 mM sodium acetate, 32 g/L sucrose and 140 mM NaCl-pH 7.5 at a volumetric ratio of 1:1 of nanoparticle:buffer.
(§4) For HeLa studies evaluating CFTR protein expression, the intermediate nanoparticle formulation (1 mL, 0.415 mg mRNA) is mixed with a buffer containing 20 mM TRIS (pH 7.5), 0.9 mg/mL PEG-DMG-2K and lipid amine SA50 (647.1 nmol) at a volumetric ratio of 6:1 of nanoparticle:buffer. The resulting nanoparticle suspension undergoes concentration using a centrifugal filtration device (100 kDa molecular weight cut-off) and is diluted in running buffer (20 mM TRIS, 14.3 mM sodium acetate, and 32 g/L sucrose, pH 7.5) with a 300 mM NaCl solution to a final buffer matrix containing 70 mM NaCl.
(§5) Both resulting nanoparticle suspensions are filtered through a 0.8/0.2 μm capsule filter and filled into glass vials at an mRNA strength of about 0.1-1 mg/mLBliophysical data (Diameter and PDI from DLS measurements and Encapsualtion using Ribogreen assay) for both luciferase and CFTR mRNA nanoparticles with lipid amines is shown in Tables 2c and d, respectively.

[2] = Diameter and PDI from DLS measurements of mRNA nanoparticles with lipid amines; format: physicochemical; conditions: CFTR mRNA nanoparticle with lipid amine
Description: as §1, §2, §3, §4, §5

HeLa cells = experiment: CFTR Protein Expression Assay in HeLa Cells; format: cell-based, Human; conditions: LNPs encapsulating CFTR mRNA, N=4 wells; 5 h serum-free then 24 h; immunofluorescence vs PBS control
Description: as §4
Lipid nanoparticle compositions were prepared in a manner analogous to that in example 2. To evaluate LNP cellular uptake and protein expression In Vitro, HeLa cells from ATCC.org (ATCC CCL-2) are used. The cells are cultured in complete Minimum Essential Medium (MVEM) and are plated in 96 well Cell Carrier Ultra plate with PDL coated surface (PerkinElmer) prior to running an experiment.
Buffer control (PBS) and LNPs encapsulating cystic fibrosis transmembrane conductance regulator (CFTR) mRNA were dosed with MEM media in the absence of serum (N=4 replicate wells). LNP transfected cells were incubated for 5 h, followed by media removal and supplementation with complete MEM media. Cells were further incubated in complete MEM media overnight (24 h).
Following 24 hr incubation, the cells were fixed with PFA and processed for immunofluorescence (IF) using an anti-CFTR rabbit monoclonal antibody. Briefly, the cells were permeabilized with 0.5% TX-100 for 10 min, blocked with 3% bovine serum albumin (BSA)+PBST for 1 hr at room temperature, and incubated with primary anti-CFTR monoclonal antibody overnight at 4° C. Following primary antibody incubation, the cells were incubated with Alexa 488 conjugated secondary antibody for 30 mi and stained with DAPI and HCS CellMask Blue stain. Between different incubation steps the cells were either washed with PBS or PBST. Cells were imaged using Opera Phoenix spinning disk confocal microscope (PerkinElmer), and CFTR protein expression was detected using the 488 nm channel. The image analysis was performed in Harmony 4.9, with main analysis output being CFTR intensity per cell. The results shown in Table 3b show fold-change in CFTR signal intensity per cell compared to buffer (PBS) control (NA=not available).

CC(C)CCC[C@@H](C)[C@H]1CC[C@H]2[C@@H]3CC=C4C[C@@H](OC(=O)CN(CCCN)CCCCNCCCN)CC[C@]4(C)[C@H]3CC[C@]12C (stereo in doubt) [SA65, ((3S,8S,9S,10R,13R,14S,17R)-10,13-dimethyl-17-((R)-6-methylheptan-2-yl)-2,3,4,7,8,9,10,11,12,13,14,15,16,17-tetradecahydro-1H-cyclopenta[a]phenanthren-3-yl N-(3-aminopropyl)-N-(4-((3-aminopropyl)amino)butyl)glycinatetetrahydrochloride]
% Encapsulation (Ribogreen) [1]: 99.6% | Diameter (nm) [2]: 78.0 nm | PDI [2]: 0.14 | Average fold-change in CFTR signal intensity per cell compared to buffer control ± standard deviation (HeLa cells): 5.9 ± 0.5 fold-change

CC(C)CCC[C@@H](C)[C@H]1CC[C@H]2[C@@H]3CC=C4C[C@@H](OC(=O)CC(=O)N(CCCN(C)C)CCCN(C)C)CC[C@]4(C)[C@H]3CC[C@]12C.Cl.Cl [SA50, (3S,8S,9S,10R,13R,14S,17R)-10,13-Dimethyl-17-((R)-6-methylheptan-2-yl)-2,3,4,7,8,9,10,11,12,13,14,15,16,17-tetradecahydro-1H-cyclopenta[a]phenanthren-3-yl 3-(bis(3-(dimethylamino)propyl)amino)-3-oxopropanoate dihydrochloride]
% Encapsulation (Ribogreen) [1]: 99.3% | Diameter (nm) [2]: 77.1 nm | PDI [2]: 0.11 | Average fold-change in CFTR signal intensity per cell compared to buffer control ± standard deviation (HeLa cells): 7.1 ± 0.4 fold-change

CC(C)CCC[C@@H](C)[C@H]1CC[C@H]2[C@@H]3CC=C4C[C@@H](OC(=O)CCCC(=O)N(CCCN(C)C)CCCN(C)C)CC[C@]4(C)[C@H]3CC[C@]12C.Cl.Cl [SA51, (3S,8S,9S,10R,13R,14S,17R)-10,13-Dimethyl-17-((R)-6-methylheptan-2-yl)-2,3,4,7,8,9,10,11,12,13,14,15,16,17-tetradecahydro-1H-cyclopenta[a]phenanthren-3-yl 5-(bis(3-(dimethylamino)propyl)amino)-5-oxopentanoate dihydrochloride]
% Encapsulation (Ribogreen) [1]: 98.4% | Diameter (nm) [2]: 74.3 nm | PDI [2]: 0.15 | Average fold-change in CFTR signal intensity per cell compared to buffer control ± standard deviation (HeLa cells): 6.5 ± 0.4 fold-change

CC(C)CCC[C@@H](C)[C@H]1CC[C@H]2[C@@H]3CC=C4C[C@@H](OC(=O)CCCC(=O)N(CCCN)CCCCNCCCN)CC[C@]4(C)[C@H]3CC[C@]12C.Cl.Cl.Cl [SA58, (3S,8S,9S,10R,13R,14S,17R)-10,13-Dimethyl-17-((R)-6-methylheptan-2-yl)-2,3,4,7,8,9,10,11,12,13,14,15,16,17-tetradecahydro-1H-cyclopenta[a]phenanthren-3-yl 5-((3-aminopropyl)(4-((3-aminopropyl)amino)butyl)amino)-5-oxopentanoate trihydrochloride]
% Encapsulation (Ribogreen) [1]: 99.6% | Diameter (nm) [2]: 71.6 nm | PDI [2]: 0.10 | Average fold-change in CFTR signal intensity per cell compared to buffer control ± standard deviation (HeLa cells): 4.5 ± 0.3 fold-change

CC(C)CCC[C@@H](C)[C@H]1CC[C@H]2[C@@H]3CC=C4C[C@@H](OC(=O)N(CCCCCCCCN(C)C)CCCN(C)C)CC[C@]4(C)[C@H]3CC[C@]12C [SA64, (3S,8S,9S,10R,13R,14S,17R)-10,13-dimethyl-17-((R)-6-methylheptan-2-yl)-2,3,4,7,8,9,10,11,12,13,14,15,16,17-tetradecahydro-1H-cyclopenta[a]phenanthren-3-yl (8-(dimethylamino)octyl)(3-(dimethylamino)propyl)carbamate]
% Encapsulation (Ribogreen) [1]: 99.1% | Diameter (nm) [2]: 67.8 nm | PDI [2]: 0.09 | Average fold-change in CFTR signal intensity per cell compared to buffer control ± standard deviation (HeLa cells): 9.1 ± 0.6 fold-change

CC(C)CCC[C@@H](C)[C@H]1CC[C@H]2[C@@H]3CC=C4C[C@@H](OC(=O)N(CCCCOCCCN(C)C)CCCN(C)C)CC[C@]4(C)[C@H]3CC[C@]12C [SA67, (3S,8S,9S,10R,13R,14S,17R)-10,13-dimethyl-17-((R)-6-methylheptan-2-yl)-2,3,4,7,8,9,10,11,12,13,14,15,16,17-tetradecahydro-1H-cyclopenta[a]phenanthren-3-yl (4-(3-(dimethylamino)propoxy)butyl)(3-(dimethylamino)propyl)carbamate]
% Encapsulation (Ribogreen) [1]: 99.2% | Diameter (nm) [2]: 72.8 nm | PDI [2]: 0.10 | Average fold-change in CFTR signal intensity per cell compared to buffer control ± standard deviation (HeLa cells): 7.7 ± 0.7 fold-change

CC(C)CCC[C@@H](C)[C@H]1CC[C@H]2[C@@H]3CC=C4C[C@@H](OC(=O)N(CCCCN(C)CCCN(C)C)CCCN(C)C)CC[C@]4(C)[C@H]3CC[C@]12C [SA68, (3S,8S,9S,10R,13R,14S,17R)-10,13-dimethyl-17-((R)-6-methylheptan-2-yl)-2,3,4,7,8,9,10,11,12,13,14,15,16,17-tetradecahydro-1H-cyclopenta[a]phenanthren-3-yl (3-(dimethylamino)propyl)(4-((3-(dimethylamino)propyl)(methyl)amino)butyl)carbamate]
% Encapsulation (Ribogreen) [1]: 99.2% | Diameter (nm) [2]: 74.6 nm | PDI [2]: 0.12 | Average fold-change in CFTR signal intensity per cell compared to buffer control ± standard deviation (HeLa cells): 8.9 ± 0.4 fold-change

CC(C)CCC[C@@H](C)[C@H]1CC[C@H]2[C@@H]3CC=C4C[C@@H](OC(=O)[C@H](C)N(CCCN)CCCCNCCCN)CC[C@]4(C)[C@H]3CC[C@]12C [SA73, (3S,8S,9S,10R,13R,14S,17R)-10,13-Dimethyl-17-((R)-6-methylheptan-2-yl)-2,3,4,7,8,9,10,11,12,13,14,15,16,17-tetradecahydro-1H-cyclopenta[a]phenanthren-3-yl N-(3-aminopropyl)-N-(4-((3-aminopropyl)amino)butyl)alaninate trihydrochloride]
% Encapsulation (Ribogreen) [1]: 100% | Diameter (nm) [2]: 92.8 nm | PDI [2]: 0.16 | Average fold-change in CFTR signal intensity per cell compared to buffer control ± standard deviation (HeLa cells): 9.4 ± 0.6 fold-change

CC(C)CCC[C@@H](C)[C@H]1CC[C@H]2[C@@H]3CC=C4C[C@@H](OC(=O)CCCC(=O)N(CCCCNCCC(C)(C)N)CCC(C)(C)N)CC[C@]4(C)[C@H]3CC[C@]12C [SA121, (3S,8S,9S,10R,13R,14S,17R)-10,13-dimethyl-17-((R)-6-methylheptan-2-yl)-2,3,4,7,8,9,10,11,12,13,14,15,16,17-tetradecahydro-1H-cyclopenta[a]phenanthren-3-yl 5-((3-amino-3-methylbutyl)(4-((3-amino-3-methylbutyl)amino)butyl)amino)-5-oxopentanoate trihydrochloride]
% Encapsulation (Ribogreen) [1]: 97.4% | Diameter (nm) [2]: 79.2 nm | PDI [2]: 0.14 | Average fold-change in CFTR signal intensity per cell compared to buffer control ± standard deviation (HeLa cells): 16.2 ± 1.8 fold-change
